Test results taken from the supplement of paper PMC10307832.

Assays:
Experiment in all cases: relative viability (nuclei count vs DMSO), 5 days (fraction); higher = more cells survive
[1] = compound: O=S(=O)(c1ccccc1)N(CC(F)(F)F)c1ccc(C(O)(C(F)(F)F)C(F)(F)F)cc1 + Cc1nc(NC(=O)N2CCC[C@H]2C(N)=O)sc1-c1ccnc(C(C)(C)C(F)(F)F)c1 [Alpelisib] (partner 2 µM)
How it was run: (§1)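 Five library-drug doses in √10 steps were combined with a fixed anchor-drug dose, or a single drug was given alone, by pin tool to lung cancer cell lines in 1536-well plates the day after seeding. Nuclei were stained and counted after 5 days. Relative viability is the nuclei count in treated wells over that in vehicle wells, taken as the median of duplicate plates.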

[2] = compound: O=S(=O)(c1ccccc1)N(CC(F)(F)F)c1ccc(C(O)(C(F)(F)F)C(F)(F)F)cc1 + Cc1nc(Nc2ncc(C(=O)Nc3c(C)cccc3Cl)s2)cc(N2CCN(CCO)CC2)n1 [Dasatinib] (partner 0.075 µM)
How it was run: as §1

RO-3306 + OSI-027 = compound: C1=CC2=C(C=CC(=C2)C=C3C(=O)NC(=NCC4=CC=CS4)S3)N=C1 [RO-3306] + COc1cccc2cc(-c3nc([C@H]4CC[C@H](C(=O)O)CC4)n4ncnc(N)c34)[nH]c12 [OSI-027] (partner 0.5 µM)
How it was run: as §1

RO-3306 + Decitabine = compound: C1=CC2=C(C=CC(=C2)C=C3C(=O)NC(=NCC4=CC=CS4)S3)N=C1 [RO-3306] + Nc1ncn([C@H]2C[C@H](O)[C@@H](CO)O2)c(=O)n1 [Decitabine] (partner 2 µM)
How it was run: as §1

[3] = compound: O=S(=O)(c1ccccc1)N(CC(F)(F)F)c1ccc(C(O)(C(F)(F)F)C(F)(F)F)cc1 + CS(=O)(=O)N1CCN(Cc2cc3nc(-c4cccc5[nH]ncc45)nc(N4CCOCC4)c3s2)CC1 [Pictilisib] (partner 1 µM)
How it was run: as §1

**Q.** UMC-11 was tested. Which relative viability ([1]; first compound 0.8 µM) did it give?
**A.** 1.24

**Q.** And the relative viability ([1]; first compound 2.53 µM)?
**A.** 0.98

**Q.** What about the relative viability ([1]; first compound 8 µM) of the same cell line?
**A.** 1.25

**Q.** And the relative viability ([2]; first compound 0.8 µM)?
**A.** 0.561

**Q.** And the relative viability ([2]; first compound 2.53 µM)?
**A.** 0.531

**Q.** What about the relative viability ([2]; first compound 8 µM) of the same cell line?
**A.** 0.54

**Q.** What about the relative viability (RO-3306 + OSI-027; first compound 0.01 µM) of the same cell line?
**A.** 0.496

**Q.** And the relative viability (RO-3306 + OSI-027; first compound 0.03162 µM)?
**A.** 0.384

**Q.** And the relative viability (RO-3306 + OSI-027; first compound 0.1 µM)?
**A.** 0.456

**Q.** What about the relative viability (RO-3306 + OSI-027; first compound 0.3162 µM) of the same cell line?
**A.** 0.552

**Q.** And the relative viability (RO-3306 + OSI-027; first compound 1 µM)?
**A.** 0.453

**Q.** What about the relative viability (RO-3306 + Decitabine; first compound 0.01 µM) of the same cell line?
**A.** 0.569

**Q.** And the relative viability (RO-3306 + Decitabine; first compound 0.03162 µM)?
**A.** 0.58

**Q.** What about the relative viability (RO-3306 + Decitabine; first compound 0.1 µM) of the same cell line?
**A.** 0.613

**Q.** What about the relative viability (RO-3306 + Decitabine; first compound 0.3162 µM) of the same cell line?
**A.** 0.607

**Q.** What about the relative viability (RO-3306 + Decitabine; first compound 1 µM) of the same cell line?
**A.** 0.583

**Q.** What about the relative viability ([3]; first compound 0.8 µM) of the same cell line?
**A.** 0.908

**Q.** And the relative viability ([3]; first compound 2.53 µM)?
**A.** 0.867

**Q.** What about the relative viability ([3]; first compound 8 µM) of the same cell line?
**A.** 1.14
